Results on 24 molecules are retold here after ChEMBL document CHEMBL4811245, “Design, synthesis and biological evaluation of brain penetrant benzazepine-based histone deacetylase 6 inhibitors for alleviating stroke-induced brain infarction” (Eur J Med Chem, 2021).

Activity calls are given as the source filed them. No cut-off for these calls is given here.

Data set [1] has as its target T1, Protein deacetylase HDAC6 (Homo sapiens, UniProt Q9UBN7).
T1 sequence (Q9UBN7 whole entry): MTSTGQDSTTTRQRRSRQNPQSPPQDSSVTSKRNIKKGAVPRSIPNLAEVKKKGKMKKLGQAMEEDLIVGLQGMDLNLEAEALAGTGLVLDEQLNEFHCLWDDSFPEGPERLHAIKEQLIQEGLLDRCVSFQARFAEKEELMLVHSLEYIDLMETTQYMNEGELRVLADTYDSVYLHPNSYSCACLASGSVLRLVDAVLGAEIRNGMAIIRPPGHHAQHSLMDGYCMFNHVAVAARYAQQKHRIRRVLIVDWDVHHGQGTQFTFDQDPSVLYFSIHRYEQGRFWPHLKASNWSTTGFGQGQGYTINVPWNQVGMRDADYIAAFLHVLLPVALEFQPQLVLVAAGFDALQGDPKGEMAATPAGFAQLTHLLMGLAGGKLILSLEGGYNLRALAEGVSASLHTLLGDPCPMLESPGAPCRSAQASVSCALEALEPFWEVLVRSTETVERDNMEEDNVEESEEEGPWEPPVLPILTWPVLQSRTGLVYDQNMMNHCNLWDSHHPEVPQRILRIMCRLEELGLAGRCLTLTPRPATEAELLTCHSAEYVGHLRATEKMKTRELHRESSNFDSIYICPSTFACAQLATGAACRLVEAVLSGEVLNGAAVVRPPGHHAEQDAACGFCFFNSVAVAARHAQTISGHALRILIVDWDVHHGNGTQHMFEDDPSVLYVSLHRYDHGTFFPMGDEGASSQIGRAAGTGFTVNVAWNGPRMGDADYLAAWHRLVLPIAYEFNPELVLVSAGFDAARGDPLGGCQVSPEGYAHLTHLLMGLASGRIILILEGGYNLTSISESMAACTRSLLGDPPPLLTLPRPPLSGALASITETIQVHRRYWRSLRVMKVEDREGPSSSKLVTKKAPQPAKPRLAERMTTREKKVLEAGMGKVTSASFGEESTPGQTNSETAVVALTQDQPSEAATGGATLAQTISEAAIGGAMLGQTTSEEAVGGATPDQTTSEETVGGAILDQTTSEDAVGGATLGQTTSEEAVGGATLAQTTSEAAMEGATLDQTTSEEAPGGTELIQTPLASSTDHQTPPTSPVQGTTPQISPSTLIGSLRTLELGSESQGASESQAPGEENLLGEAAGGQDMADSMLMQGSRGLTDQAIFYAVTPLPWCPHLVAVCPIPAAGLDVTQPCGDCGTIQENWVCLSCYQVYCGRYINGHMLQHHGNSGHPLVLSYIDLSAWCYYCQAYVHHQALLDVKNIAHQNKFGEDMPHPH
The data set is described as follows: Inhibition of human HDAC6 preincubated for 15 mins followed by substrate addition by fluorescence-based assay.

A further data set concerns the target Histone deacetylase 1 (Homo sapiens, UniProt Q13547). As to the kind of experiment: Inhibition of human HDAC1 preincubated for 15 mins followed by substrate addition by fluorescence-based assay.
Data set [2] in a line: in vivo. Conditions: C57, mouse, brain/plasma, ip, 20 mg/kg.
Data set [3] has as its target T2, Protein deacetylase HDAC6 (Homo sapiens) (UniProt Q9UBN7).
T2 sequence (whole entry): T1 sequence (Q9UBN7 whole entry)
The data set is described as follows: Inhibition of HDAC6 in human SH-SY5Y cells assessed as increase in acetylated histone H3 levels at 0.1 to 10 uM incubated for 24 hrs by Western blot analysis. To be noted: dose 0.1-10 µM. In kind it is cell-based. (In western blotting, separated proteins are transferred to a membrane and probed.)

A short description of data set [4]: Drug concentration in brain of C57 mouse at 20 mg/kg, ip measured after 1 hr by LC/MS-MS analysis. The format is ADME, organism-based. To be noted: read-out: Ct.
A short description of data set [5]: Drug concentration in plasma of C57 mouse at 20 mg/kg, ip measured after 1 hr by LC/MS-MS analysis. The format is ADME, organism-based.
Data set [6] addresses T2, Protein deacetylase HDAC6 (Homo sapiens). The data set is described as follows: Inhibition of HDAC6 in human SH-SY5Y cells assessed as increase in acetylated alpha-tubulin levels incubated for 24 hrs by Western blot analysis. To be noted: dose 0.1-10 µM. The format is cell-based.
The nature of data set [7]: Drug concentration in brain of C57 mouse at 20 mg/kg, ip measured after 4 hrs by LC/MS-MS analysis. In kind it is ADME, organism-based. To be noted: read-out: Ct.
Data set [8] concerns the target T2, Protein deacetylase HDAC6 (Homo sapiens). The data set is described as follows: Inhibition of HDAC6 in human SH-SY5Y cells assessed as fold increase in ratio of acetylated alpha-tubulin to alpha-tubulin at 1 uM incubated for 24 hrs by Western blot analysis. In kind it is cell-based.
Data set [9] in a line: in vivo. To be noted: C57, mouse, brain/plasma, ip, 20 mg/kg. This is another data set of the same source.
Data set [10] deals with T2, Protein deacetylase HDAC6 (Homo sapiens). The data set is described as follows: Inhibition of HDAC6 in human SH-SY5Y cells assessed as fold increase in ratio of acetylated alpha-tubulin to alpha-tubulin at 10 uM incubated for 24 hrs by Western blot analysis. In kind it is cell-based.
Data set [11] deals with Rattus norvegicus. As to the kind of experiment: Neuroprotective activity in Sprague-Dawley rat middle cerebral artery occlusion model assessed as reduction in neurobehavioral defects at 25 mg/kg, ip after 24 hrs by TTC staining based assay. In kind it is functional, organism-based.
Data set [12] has as its target T2, Protein deacetylase HDAC6 (Homo sapiens). As to the kind of experiment: Inhibition of HDAC6 in human SH-SY5Y cells assessed as fold increase in ratio of acetylated histone H3 to histone H3 at 10 uM incubated for 24 hrs by Western blot analysis. In kind it is cell-based.
The test system of data set [13] is Rattus norvegicus. The data set is described as follows: Neuroprotective activity in Sprague-Dawley rat middle cerebral artery occlusion model assessed as reduction in cerebral infarction at 25 mg/kg, ip after 24 hrs by TTC staining based assay (reference value: 21.22%). In kind it is functional. Also on record: scale not given: the % may be the effect or the level left.

Data set [14] can be described thus: Drug concentration in plasma of C57 mouse at 20 mg/kg, ip measured after 4 hrs by LC/MS-MS analysis. In kind it is ADME, organism-based.
In data set [15] the test system is Rattus norvegicus. The data set is described as follows: Neuroprotective activity in Sprague-Dawley rat middle cerebral artery occlusion model assessed as reduction in neurobehavioral defects at 5 mg/kg, ip after 24 hrs by TTC staining based assay. The format is functional, organism-based.
A short description of data set [16]: Ratio of drug concentration in brain to plasma of mouse at 5 to 50 mg/kg, ip after 2 hrs by HPLC/MS-MS analysis. The format is ADME, organism-based. To be noted: dose 5-50 mg/kg, read-out: BPR.
Data set [17] can be described thus: Ratio of drug concentration in brain to plasma of Sprague-Dawley rat at 50 mg/kg, po measured after 60 to 180 mins by LC/MS-MS analysis. Conditions: time 60-180 min. In kind it is ADME, organism-based.

Histone deacetylase 1, sequence (Q13547 whole entry): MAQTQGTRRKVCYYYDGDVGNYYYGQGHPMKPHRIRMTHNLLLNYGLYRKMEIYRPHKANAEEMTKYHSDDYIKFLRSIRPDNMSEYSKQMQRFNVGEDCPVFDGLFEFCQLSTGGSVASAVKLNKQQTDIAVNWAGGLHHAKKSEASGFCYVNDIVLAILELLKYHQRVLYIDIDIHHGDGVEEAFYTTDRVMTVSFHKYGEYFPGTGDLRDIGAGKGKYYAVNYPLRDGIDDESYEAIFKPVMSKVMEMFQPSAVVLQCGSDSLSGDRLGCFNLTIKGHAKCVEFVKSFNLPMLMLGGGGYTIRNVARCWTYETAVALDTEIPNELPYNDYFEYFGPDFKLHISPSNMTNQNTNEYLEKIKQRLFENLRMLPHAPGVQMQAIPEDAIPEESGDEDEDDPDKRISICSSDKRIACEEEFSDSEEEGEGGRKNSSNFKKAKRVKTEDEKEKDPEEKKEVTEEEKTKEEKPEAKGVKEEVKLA

In the case of `COc1ccc(-c2ccccc2)c2c1CCN(Cc1ccc(C(=O)NO)cc1)CC2`, the figures for the IC50 (in data set [1]; against Histone deacetylase 1) were 497 nM and 826 nM, respectively.

`COc1ccc(Br)c2c1CCN(Cc1ccc(C(=O)NO)cc1)CC2`: the figures for the IC50 (in data set [1]; on Histone deacetylase 1) were 111 nM and 385 nM, respectively.

`O=C(NO)c1ccc(CN2CCCSc3ccccc32)cc1` displayed a Kp at 4 h in “in vivo [2]” of 2.35. Further, the inhibition result in data set [3] is “Active”. The values for the concentration at 1 h in data set [4] and in data set [5] were 220 ng/mL and 96.1 ng/mL, respectively. In addition, in [6], the inhibition entry was “Dose-Dependent Effect”. For the same molecule, the concentration at 4 h in data set [7] is 16.6 ng/mL; in data set [14] it was 7.03 ng/mL. For the same molecule, the values for the FC in [8], in data set [10] and in [12] were 1.3, 1.4 and 1.1, respectively. In the data set “in vivo [9]”, this molecule gave a Kp at 1 h of 2.3. In addition, the result with Rattus norvegicus [11] was Active. The Activity in the data set with Rattus norvegicus [13] worked out at 11.47%. The IC50 (in general, the concentration that gives 50% inhibition) in [1] came to 1.8 nM.

Consider `CCCCC1OC(=O)c2ccccc21` (stereo not given), for which the outcome with Rattus norvegicus [15] was Active.

For the molecule `O=C(NO)c1ccc(CN2CCC[S+]([O-])c3ccccc32)cc1` (stereo not given), the IC50 in [1] was 13 nM; at Histone deacetylase 1, 166 nM.

As to `CN1CCc2c(c3ccccc3n2Cc2ccc(C(=O)NO)cc2)C1` [TUBASTATIN A], the Kp at 2 h in data set [16] was found to be 0.18. Besides, in the data set on Rattus norvegicus [11], the outcome was Active. Further, the Activity in the data set with Rattus norvegicus [13] amounted to 13.02%.

Regarding `O=C(NO)c1cnc(NC2(c3cccc(F)c3)CCCCC2)nc1`, the Kp at 2 h in data set [16] amounted to 1.26.

For `Cc1ccc2c(c1)N(Cc1ccc(C(=O)NO)cc1)CCCC2`, the values for the IC50 (in data set [1]; on Histone deacetylase 1) were 12 nM and 377 nM, respectively.

As to `O=C(NO)c1ccc(CN2CCCCc3ccc(F)cc32)cc1`, the values for the concentration for half-maximal inhibition (IC50) (in data set [1]; at Histone deacetylase 1) were 19 nM and 761 nM, respectively.

Turning to `COc1cccc2c1CCN(Cc1ccc(C(=O)NO)cc1)CC2`, the results for the IC50 (in data set [1]; on Histone deacetylase 1) were 318 nM and 798 nM, respectively.

As for `O=C(NO)c1ccc(CN2CCCCc3ccccc32)cc1`, the IC50 in [1] amounted to 6.4 nM; against Histone deacetylase 1, 392 nM.

On Histone deacetylase 1, `COc1ccc(C2CC2)c2c1CCN(Cc1ccc(C(=O)NO)cc1)CC2` registered an IC50 of 502 nM.

In the data set “in vivo [2]”, `O=C(NO)c1ccc(CN2CCCOc3ccccc32)cc1` yielded a Kp at 4 h of 2.88. Further, the concentration at 1 h in [4] came out at 111 ng/mL; in data set [5], 59.4 ng/mL. Also, the values for the concentration at 4 h in data set [7] and in [14] were 12.2 ng/mL and 4.29 ng/mL, respectively. Besides, the Kp at 1 h in “in vivo [9]” was found to be 1.98.

Turning to `O=C(NO)c1ccc(CN2CCCCc3ccc(-c4ccccc4)cc32)cc1`, the IC50 on Histone deacetylase 1 worked out at 706 nM.

Turning to `COc1ccc2c(c1)CCN(Cc1ccc(C(=O)NO)cc1)CC2`, the IC50 in data set [1] was 29 nM; against Histone deacetylase 1, 431 nM.

Take `COc1ccc2c(c1)N(Cc1ccc(C(=O)NO)cc1)CCCC2`: the Kp at 4 h in “in vivo [2]” amounted to 2.29. Also, the concentration at 1 h in data set [4] is 957 ng/mL; in [5], 526 ng/mL. The figures for the concentration at 4 h in data set [7] and in data set [14] were 18.7 ng/mL and 8.18 ng/mL, respectively. Further, in the data set “in vivo [9]”, the Kp at 1 h worked out at 1.85. The outcome in the data set with Rattus norvegicus [11] was Active.

For `O=C(NO)c1cnc(NC2(c3ccccc3)CC2)nc1`, the Kp at 2 h in data set [16] came out at 1.22.

Regarding `O=C(NO)c1ccc(CN2CCc3ccccc3CC2)cc1`, the IC50 in data set [1] worked out at 255 nM; against Histone deacetylase 1, 804 nM.

With `O=C(NO)c1ccc(CN2CCCc3cc(Cl)ccc32)cc1`, the concentration at 1 h in data set [4] came to 468 ng/mL; in data set [5], 256 ng/mL. Also, the concentration at 4 h in data set [7] came out at 13.1 ng/mL; in data set [14] it was 4.13 ng/mL.

On to `O=C(NO)c1ccc(CNc2cccc3cccnc23)cc1`, for which the Kp in [17] worked out at 1.01.

Regarding `O=C(NO)c1ccc(CN2CCCc3ccccc3C2)cc1`, the IC50 was 100 nM in [1] and 1000 nM at Histone deacetylase 1.

Take `O=C(NO)c1ccc(CN2CCCCc3cc(Cl)ccc32)cc1`: the IC50 was 37 nM in [1] and 819 nM against Histone deacetylase 1.

For the molecule `O=C(NO)c1ccc(CN2CCCCc3ccc(C4CC4)cc32)cc1`, the IC50 against Histone deacetylase 1 was found to be 509 nM.

For `COc1cc2c(cc1OC)N(Cc1ccc(C(=O)NO)cc1)CCCC2`, the IC50 in data set [1] was 14 nM; against Histone deacetylase 1 it was 295 nM.
